Where “and” joins values, the source holds several entries; their conditions need not be identical. Identical values can stand only once.

The results in this text go back to US12134769B2, “MicroRNA-198 as a tumor suppressor in ovarian cancer” (Baylor College of Medicine, priority 2011, dated 2024).

Data set [1] has as its system MIA-MSLN cells. As to the kind of experiment: Subcutaneous pancreatic cancer mouse model. The data set is classed as in vivo, nude mice. On the procedure: All animal procedures were conducted under the guidelines approved by the Institutional Animal Care and Use Committee (IACUC). Cells (3×10^6) were inoculated into the right flank (s.c. model) or into the pancreas (orthotopic model) of 5 to 6-week-old male nude mice (NCI-Charles River) as previously described (Li et al., 2007). Tumor size was measured using a digital caliper and tumor volume was determined with the following formula: tumor volume (mm^3)=[length (mm)]×[width (mm)]2×0.52. For the orthotopic model, after 4 weeks all surviving mice were euthanized and evaluated macroscopically for the presence of orthotopic tumor and metastases in the abdominal cavity. Tumor spread was further visualized using a fluorescent filter to view GFP expression. The tumor nodules were explanted, counted, and weighed. Tumor tissues were stored in RNAse Later solution (Ambion) in −80° for subsequent RNA/miRNA isolation and analysis.

Data set [2] deals with AsPC1 cells. Description: Monolayer wound healing assay. The class given is cell-based, human. The settings on record: miR-198 overexpressed, all serum conditions tested. An excerpt:
(§1) For wound healing assay, wounds were created in confluent monolayer of cells with a sterile pipette tip in either 0%, 0.2%, 2%, or 5% FBS media, and wound healing was observed within the scrape line at different time points; representative fields for each cell line were photographed (Li et al., 2008, Bharadwaj).

Data set [3] relates to MIA-MSLN cells. Description: Monolayer wound healing assay. The class given is cell-based, human. The following applies: miR-198 overexpressed, all serum conditions tested.
From the text: as §1

Data set [4] relates to AsPC1 cells. Description: Invasion assay across Matrigel. The following applies: AsPC1 cells following miR-198 overexpression. The data set is classed as cell-based, human. Here is the method:
(§2) Cell migration was determined with a modified Boyden chamber assay as described previously (Li et al., 2008). For invasion assays, Matrigel basement membrane matrix (BD Biosciences) was used by adding 100 ul of 1 mg/ml Matrigel to the migration chamber inserts prior to plating of the cells (Li et al., 2008, Bharadwaj).
(§3) An invasion assay was performed as described for the migration assay. For invasion, Matrigel basement membrane matrix (BD Biosciences) was used by adding 100 μl of 1 mg/ml Matrigel to the migration chamber inserts prior to plating of the cells.

The test system of data set [5] is MIA-MSLN cells. Description: Invasion assay across Matrigel. The data set is classed as cell-based, human. The following applies: 36 h after miR-198 precursor transfection. Here is the method: as §2, §3

With “miR-198: microRNA-198, SEQ ID NO: 1 gguccagaggggagauagg; used as transfected precursors (Ambion) or Lenti-miR stable overexpression (GGUCCAGAGGGGAGAUAGG; listed as RNA, chemistry not given here; listed as Homo sapiens)”, in data set [1] (s.c. MIA-MSLN-miR-198 cells), the “mice that developed tumors” value is reported as 3 of 9. Besides, the average tumor volume in data set [1] (s.c. MIA-MSLN-miR-198 cells, day 45 post injection, the three mice with tumors) was 37 mm^3 and 36 mm^3. Besides, the “mice with no signs of tumor development” value in data set [1] (s.c. miR-198 overexpressing cells, tumor-free for 45 days) is 6/9. The first measurable tumors in data set [1] (s.c., the three mice that presented small tumors) is on record as 35 day post injection. The wound closure rate result in data set [2] and in data set [3] was “reduced wound closure rate” throughout. Moreover, the invasion decreased in data set [4] was about 50%. This substance had an invasion reduced in data set [5] of 24%.
